Among the data in PubChem BioAssay (NCI) are TGI and GI50 values, retold here.

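48-hour exposure; five concentrations; linearly interpolated endpoints. Here, GI50 denotes the concentration required for 50% inhibition of growth. TGI denotes the concentration required for complete inhibition of growth.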 Where only a bound is given, the exact number is not on record here.

Among the test systems are SN12C renal; IGROV1 ovarian; EKVX NSCLC; UACC-62 melanoma; CCRF-CEM leukemia; SNB-19 CNS; OVCAR-3 ovarian; RPMI-8226 leukemia; HCC-2998 colon; SNB-75 CNS.
Holding throughout (assay): NCI tumour cell line growth inhibition, 48 h

For the molecule `CCOC(=O)c1ccc2c(c1)Cc1cc([N+](=O)[O-])ccc1-2`, the TGI with SN12C renal was greater than 100 µM; with IGROV1 ovarian, greater than 100 µM; in the test on EKVX NSCLC it was 50.6 µM; in the test with UACC-62 melanoma, greater than 100 µM; in the test on CCRF-CEM leukemia it was greater than 100 µM; in the test on SNB-19 CNS, greater than 100 µM. Besides, the TGI with OVCAR-3 ovarian and in the test on RPMI-8226 leukemia was greater than 100 µM in each case.

As for `CCOC(=O)C1=C(C)N=c2s/c(=C\c3ccccc3O)c(=O)n2C1c1ccc(OC)c2ccccc12` (stereo unspecified), the GI50 in the test with SN12C renal was 17.6 µM; with IGROV1 ovarian, 21.4 µM; in the test with UACC-62 melanoma it was 40.7 µM; in the test on HCC-2998 colon, 8.43 µM; in the test with CCRF-CEM leukemia, 23.2 µM; in the test with SNB-19 CNS, 13.8 µM. The GI50 in the test on OVCAR-3 ovarian was 3.04 µM; in the test with SNB-75 CNS, 2.01 µM; in the test on RPMI-8226 leukemia, 5.39 µM. The TGI was 63.6 µM in the test with SN12C renal; 75 µM in the test on IGROV1 ovarian; greater than 100 µM in the test with UACC-62 melanoma; 58.1 µM in the test with HCC-2998 colon; greater than 100 µM with CCRF-CEM leukemia; 67.9 µM with SNB-19 CNS. Moreover, the TGI with OVCAR-3 ovarian stood at 7.83 µM; in the test on SNB-75 CNS it was 6.11 µM; in the test with RPMI-8226 leukemia, 31.2 µM.

`COc1ccc2sc3cccc(NCCN(C)C)c3c(=O)c2c1`: the GI50 with SN12C renal is 3.36 µM; in the test with IGROV1 ovarian it was 3.35 µM; with UACC-62 melanoma it was 1.76 µM; with HCC-2998 colon, 1.83 µM; with CCRF-CEM leukemia, 2.43 µM; with SNB-19 CNS, 2.78 µM. Further, the figures for the GI50 in the test on OVCAR-3 ovarian, in the test on SNB-75 CNS and in the test on RPMI-8226 leukemia were 4.65 µM, 2.9 µM and 2.22 µM, respectively. Besides, the TGI with SN12C renal was determined as 13.4 µM; in the test on IGROV1 ovarian, 11.6 µM; in the test with UACC-62 melanoma, 3.24 µM; in the test on HCC-2998 colon, 3.39 µM; in the test with CCRF-CEM leukemia it was 8.39 µM; with SNB-19 CNS, 14.1 µM. In addition, the TGI was 16.5 µM in the test with OVCAR-3 ovarian, 12.8 µM with SNB-75 CNS and 5.16 µM with RPMI-8226 leukemia.

In the case of `O=C1/C(=C\c2ccc(F)cc2)CN(C(=O)c2ccccc2)C/C1=C\c1ccc(F)cc1`, the GI50 was 3.02 µM in the test with SN12C renal; 3.33 µM with IGROV1 ovarian; 1.84 µM in the test on UACC-62 melanoma; 2.62 µM in the test on HCC-2998 colon; 1.05 µM in the test on CCRF-CEM leukemia; 5.05 µM in the test on SNB-19 CNS. Besides, the GI50 is 3.57 µM with SNB-75 CNS and 0.296 µM in the test with RPMI-8226 leukemia. The TGI in the test with SN12C renal is 12.1 µM; in the test on IGROV1 ovarian, 10.7 µM; in the test with UACC-62 melanoma, 4.83 µM; in the test with HCC-2998 colon, 6.98 µM; in the test on CCRF-CEM leukemia, greater than 100 µM; in the test on SNB-19 CNS it was 20.8 µM. Besides, the TGI in the test on SNB-75 CNS came out at 42.6 µM; in the test with RPMI-8226 leukemia it was 1.17 µM.

`CO/C=C/C(=O)c1cc2cnc3c(=N)cc(NC(=O)C(C)C)c([nH]1)c23`: the GI50 was 0.0246 µM in the test on SN12C renal; 0.0187 µM in the test with IGROV1 ovarian; 0.0408 µM in the test with UACC-62 melanoma; 0.291 µM with HCC-2998 colon; 0.0184 µM in the test with CCRF-CEM leukemia; 0.148 µM with SNB-19 CNS. Besides, the GI50 in the test with OVCAR-3 ovarian is 0.0418 µM; with SNB-75 CNS, 0.00763 µM; in the test with RPMI-8226 leukemia, 0.0149 µM. Besides, the TGI in the test on SN12C renal was found to be 1.61 µM; in the test on IGROV1 ovarian, 0.138 µM; in the test with UACC-62 melanoma, 0.185 µM; in the test with HCC-2998 colon, 1.63 µM; in the test with CCRF-CEM leukemia it was 4.94 µM; in the test with SNB-19 CNS, 1.08 µM. Further, the TGI with OVCAR-3 ovarian worked out at 0.353 µM; in the test with SNB-75 CNS, 0.0982 µM; with RPMI-8226 leukemia, 0.0906 µM.

With `CN(C)c1ccc(/C=C/c2ccnc3c(O)cccc23)cc1`, the GI50 with SN12C renal is 0.529 µM; with IGROV1 ovarian, 0.389 µM; with UACC-62 melanoma, 0.294 µM; in the test with HCC-2998 colon, 2.09 µM; in the test on CCRF-CEM leukemia, 0.333 µM; in the test on SNB-19 CNS, 0.395 µM. The GI50 is 0.462 µM in the test on OVCAR-3 ovarian, 0.372 µM in the test with SNB-75 CNS and 0.482 µM in the test with RPMI-8226 leukemia. Further, the TGI in the test with SN12C renal was greater than 100 µM; with IGROV1 ovarian, greater than 100 µM; in the test with UACC-62 melanoma, 1.07 µM; with HCC-2998 colon, greater than 100 µM; in the test with CCRF-CEM leukemia, greater than 100 µM; in the test with SNB-19 CNS, greater than 100 µM. Also, the TGI is greater than 100 µM in the test with OVCAR-3 ovarian, 36.6 µM with SNB-75 CNS and greater than 100 µM in the test on RPMI-8226 leukemia.

With `CCOC(=O)c1ccc(Nc2sc(C(=O)c3ccc(Br)cc3)c(N)c2C#N)cc1`, the GI50 in the test with SN12C renal is 4.12 µM; in the test on UACC-62 melanoma, 0.483 µM; with HCC-2998 colon it was greater than 100 µM; in the test with CCRF-CEM leukemia, 1.43 µM; in the test on SNB-19 CNS, 7.18 µM; with OVCAR-3 ovarian, 0.364 µM. The GI50 in the test on SNB-75 CNS was 0.496 µM; with RPMI-8226 leukemia, 2.57 µM. The TGI in the test with SN12C renal, in the test with IGROV1 ovarian, in the test with UACC-62 melanoma, in the test with HCC-2998 colon, in the test on CCRF-CEM leukemia and in the test on SNB-19 CNS was greater than 100 µM each time. The TGI in the test with OVCAR-3 ovarian was 2.19 µM; in the test on SNB-75 CNS it was 7.61 µM; in the test with RPMI-8226 leukemia, greater than 72.3 µM.

As for `Cn1cc(C2=C(c3ccccc3[N+](=O)[O-])C(=O)NC2=O)c2ccccc21`, the GI50 in the test with SN12C renal was 4.98 µM; in the test with IGROV1 ovarian, 6.9 µM; in the test with UACC-62 melanoma, 3.68 µM; in the test with HCC-2998 colon it was 7.79 µM; in the test with SNB-19 CNS it was 6.88 µM; in the test with OVCAR-3 ovarian it was 2.32 µM. The results for the GI50 in the test on SNB-75 CNS and in the test with RPMI-8226 leukemia were 0.0705 µM and 5.93 µM, respectively. For the same molecule, the TGI in the test on SN12C renal is greater than 25 µM; in the test with IGROV1 ovarian, greater than 19.5 µM; with UACC-62 melanoma, 12.1 µM; in the test on HCC-2998 colon, greater than 23.7 µM; in the test with SNB-19 CNS it was greater than 25 µM; with OVCAR-3 ovarian, greater than 21.8 µM. Also, the TGI in the test on SNB-75 CNS was found to be 2.39 µM; in the test with RPMI-8226 leukemia it was 15.2 µM.

Turning to `C=C1CC2CCCC12C=O` (stereo unspecified), the TGI in the test with SN12C renal, in the test on IGROV1 ovarian, with UACC-62 melanoma, with HCC-2998 colon, in the test with CCRF-CEM leukemia and with SNB-19 CNS was greater than 10 µM each time. Besides, the TGI with OVCAR-3 ovarian, with SNB-75 CNS and with RPMI-8226 leukemia was greater than 10 µM each time.

For `COc1ccc(C(CCC(C)=O)C(=O)O)cc1OC` (stereo unspecified), the TGI in the test on SN12C renal, in the test with IGROV1 ovarian, in the test on EKVX NSCLC, with UACC-62 melanoma, in the test on SNB-19 CNS and in the test with OVCAR-3 ovarian was greater than 100 µM throughout. In addition, the TGI with SNB-75 CNS and in the test on RPMI-8226 leukemia was greater than 100 µM throughout.

In the case of `COc1ccc2c(c1)[n+]([O-])c(-c1ccc([N+](=O)[O-])cc1)c(N)[n+]2[O-]`, the TGI in the test with SN12C renal, with IGROV1 ovarian, with EKVX NSCLC, in the test on CCRF-CEM leukemia, with SNB-19 CNS and in the test with OVCAR-3 ovarian was greater than 100 µM in each case. Further, the TGI with SNB-75 CNS is greater than 100 µM.

Turning to `COc1ccc(OC(C)=O)c2c1CCC=CC2=O`, the TGI was determined as 31 µM with SN12C renal; 34.4 µM in the test on IGROV1 ovarian; 26.2 µM with UACC-62 melanoma; 32.9 µM with HCC-2998 colon; 17.1 µM in the test on CCRF-CEM leukemia; 31.4 µM in the test with SNB-19 CNS. The TGI in the test on OVCAR-3 ovarian came to 29.3 µM; in the test with SNB-75 CNS, 29.3 µM; in the test on RPMI-8226 leukemia, 3.96 µM.

Take `O=C1/C(=N\O)c2ccccc2S1(=O)=O`: the TGI in the test on SN12C renal, in the test with IGROV1 ovarian, with UACC-62 melanoma, in the test on HCC-2998 colon, with CCRF-CEM leukemia and in the test on SNB-19 CNS was greater than 100 µM in each case. Also, the TGI in the test on SNB-75 CNS and in the test with RPMI-8226 leukemia was greater than 100 µM each time.

Consider `COC1=CC(c2ccc[nH]2)=N/C1=C\c1[nH]c(C)c(CC(=O)OCc2ccccc2)c1CCC(=O)OCc1ccccc1`, for which the GI50 in the test with IGROV1 ovarian is 0.4 µM; in the test with EKVX NSCLC it was 0.349 µM; with CCRF-CEM leukemia it was 0.229 µM; with SNB-19 CNS, 1.72 µM; in the test on OVCAR-3 ovarian it was 0.363 µM; in the test on SNB-75 CNS it was 0.275 µM. Further, the GI50 in the test on RPMI-8226 leukemia was 0.234 µM. Also, the TGI in the test on IGROV1 ovarian is 2.55 µM; in the test with EKVX NSCLC it was 4.13 µM; with CCRF-CEM leukemia it was 2.29 µM; in the test with SNB-19 CNS it was greater than 100 µM; with OVCAR-3 ovarian, 1.46 µM; in the test with SNB-75 CNS it was 1.53 µM. The molecule also gave a TGI in the test with RPMI-8226 leukemia of 0.76 µM.

On to `Nc1c(C(=O)c2ccc(-c3cccnc3)cc2)cnn1-c1ccc(F)cc1`, for which the GI50 in the test on SN12C renal is greater than 19.5 µM; with IGROV1 ovarian, 24.3 µM; in the test with UACC-62 melanoma, greater than 21.1 µM; in the test on HCC-2998 colon it was greater than 25 µM; in the test on SNB-19 CNS it was greater than 25 µM; in the test with OVCAR-3 ovarian, greater than 22.8 µM. Besides, the GI50 in the test with SNB-75 CNS is 11.3 µM; in the test with RPMI-8226 leukemia, greater than 17.5 µM. Also, the TGI in the test on SN12C renal, in the test on IGROV1 ovarian, in the test with UACC-62 melanoma, in the test on HCC-2998 colon, in the test with CCRF-CEM leukemia and in the test with SNB-19 CNS was greater than 25 µM throughout. Also, the TGI with OVCAR-3 ovarian, in the test with SNB-75 CNS and in the test with RPMI-8226 leukemia was greater than 25 µM in each case.
